Values quoted from earlier work as cited in patent publication US6776977B2, “Polypodal chelants for metallopharmaceuticals” (Bristol-Myers Squibb Pharma Company, priority 2001, dated 2004).

Details: decomposition under acidic conditions

Q: With `O=C([O-])CN(CCN(CC(=O)[O-])CC(=O)[O-])CCN(CC(=O)[O-])CC(=O)[O-].[Gd+3]` [Gd(DTPA)^2−] as the compound, how does the Kobs read?
A: 0.0012 s⁻¹
